Like-named read-outs stand apart in the source and are kept apart here.

What is called inhibition is the drop in the measured response relative to a control, in per cent. The Ki is the equilibrium dissociation constant of an inhibitor or competing ligand from its target.

The target in test [1] is T1, MOR (μ opioid receptor) (Homo sapiens, UniProt P35372).
T1 construct: expressed in transfected cells; host or cells: HEK293
Description: MOR radioligand binding ([3H]-DAMGO, HEK293 cell homogenates). The note with it: Percent inhibition at 10,000 nM; [3H]-DAMGO. The protocol: (§1) Radioligand binding assays. Detailed protocols for the primary and secondary radioligand binding assays can be found in the National Institute of Mental Health's Psychoactive Drug Screening Program (NIMH PDSP) Assay Protocol Book (Roth, 2018). Briefly, primary and secondary radioligand binding assays are carried out in a final of volume of 125 μL per well in appropriate binding buffer. […] Total binding and nonspecific binding are determined in the absence and presence of 10 μM of appropriate reference compound (Naltrindole DOR, Salvinorin A KOR and DAMGO MOR). In brief, plates are usually incubated at room temperature and in the dark for 90 min. Reactions are stopped by vacuum filtration onto 0.3% polyethyleneimine (PEI) soaked 96-well filter mats using a 96-well Filtermate harvester, followed by three washes with cold PBS buffer. Scintillation cocktail is then melted onto the microwave-dried filters on a hot plate and radioactivity counted in a Microbeta counter. The data (n=6) were analyzed by nonlinear regression.
(§2) Ligand affinities were determined for KOR (κ opioid receptor), DOR (δ opioid receptor), and MOR (μ opioid receptor) using radioligand binding assays at a screening concentration of 10,000 nM. For these assays, cell homogenates from HEK293 cells that overexpressed KOR, MOR, and DOR were used in combination with [^3H]-U69593, [^3H]-DAMGO, and [^3H]-DADLE, respectively Compounds that exceeded more than 50% radioligand displacement were investigated further in concentration-dependent experiments to determine Ki values. Gamma aminobutyric acid type A receptor (GABAAR) binding was determined with rat brain homogenate and ^3H-flunitrazepam. Flunitrazepam binds GABAAR subtypes that consists of two α and two β subunits and one γ or δ subunit. Strong affinities to α1-3,5,6β1-3γ1-y/δ GABAARS have been reported for flunitrazepam. The […] GABAAR subtype expression in the brain includes 43% α1β2γ2, 15% α2β3γ2+8% α2βγ1, 10% α3β3γ2, 6% α4βγ/δ, 4% α5β3γ2, and 4% α6β2γ2/δ. Therefore, compounds with high affinity toward the synaptic benzodiazepine-sensitive receptors (BZR) predominately bind α1-3β2-3γ1-2 GABAARs. Alternatively, compounds with weak BZR binding might be selective for α4-6βγ/δ GABAARs.
(§3) Psychoactive Drug Screening Program. Detailed protocols for the primary and secondary radioligand binding assays can be found in the National Institute of Mental Health's Psychoactive Drug Screening Program (NIMH PDSP) Assay Protocol Book. Briefly, primary and secondary radioligand binding assays are carried out in a final of volume of 125 μL per well in appropriate binding buffer. The radioactive ligand concentration is close to the Kd. Total binding and nonspecific binding are determined in the absence and presence of 10 μM of appropriate reference compound, respectively. In brief, plates are usually incubated at room temperature and in the dark for 90 min. Reactions are stopped by vacuum filtration onto 0.3% polyethyleneimine (PEI) soaked 96-well filter mats using a 96-well Filtermate harvester, followed by three washes with cold PBS buffer. Scintillation cocktail is then melted onto the microwave-dried filters on a hot plate and radioactivity counted in a Microbeta counter. The data (n=6) were analyzed by nonlinear regression.

The test system of test [2] is BZR (benzodiazepine site of GABAAR). The experiment in a line: GABAAR/BZR binding, rat brain homogenate with 3H-flunitrazepam. The note with it: rat brain homogenate, 3H-flunitrazepam; for BZR %: Percent inhibition at 10,000 nM. The protocol:
as §2, §3

For test [3], the target named is T2, DOR (δ opioid receptor) (Homo sapiens, UniProt P41143).
T2 construct: expressed in transfected cells; host or cells: HEK293
T2 sequence (P41143 whole entry): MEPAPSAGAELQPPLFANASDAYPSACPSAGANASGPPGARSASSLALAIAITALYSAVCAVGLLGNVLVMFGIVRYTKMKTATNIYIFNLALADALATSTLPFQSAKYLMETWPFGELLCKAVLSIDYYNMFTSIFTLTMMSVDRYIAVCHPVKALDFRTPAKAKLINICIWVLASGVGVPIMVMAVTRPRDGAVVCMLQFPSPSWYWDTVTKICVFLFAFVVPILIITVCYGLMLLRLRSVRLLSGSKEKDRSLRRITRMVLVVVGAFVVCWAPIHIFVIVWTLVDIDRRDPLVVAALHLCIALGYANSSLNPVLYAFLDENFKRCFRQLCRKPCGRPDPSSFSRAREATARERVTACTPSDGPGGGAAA
The experiment in a line: DOR radioligand binding ([3H]-DADLE, HEK293 cell homogenates). The note with it: Percent inhibition at 10,000 nM; [3H]-DADLE. As for the experimental part:
as §1, §2, §3

In test [4] the target is T3, KOR (κ opioid receptor) (Homo sapiens, UniProt P41145).
T3 construct: expressed in transfected cells; host or cells: HEK293 (stably transfected)
T3 sequence (P41145 whole entry): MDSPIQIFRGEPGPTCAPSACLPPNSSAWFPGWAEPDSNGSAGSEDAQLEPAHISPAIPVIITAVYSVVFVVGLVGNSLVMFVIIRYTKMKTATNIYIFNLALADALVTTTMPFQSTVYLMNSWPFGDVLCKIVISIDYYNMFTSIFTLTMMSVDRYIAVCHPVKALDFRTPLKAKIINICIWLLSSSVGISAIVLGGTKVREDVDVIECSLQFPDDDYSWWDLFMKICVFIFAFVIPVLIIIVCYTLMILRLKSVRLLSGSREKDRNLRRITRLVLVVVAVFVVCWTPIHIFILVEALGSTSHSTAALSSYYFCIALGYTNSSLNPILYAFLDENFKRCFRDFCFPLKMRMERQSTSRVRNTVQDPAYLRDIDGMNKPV
Description: KOR radioligand binding ([3H]-U69593, HEK293 cell homogenates). The protocol:
as §1, §2, §3

Test [5] concerns Mouse microglia. The experiment in a line: NO production (Griess assay), LPS/IFNγ-activated mouse microglia. The test is classed as cell-based. The note with it: with 50 μM MP-IV-010; flumazenil 50 μM, picrotoxin 50 μM, bicuculline 100 μM, SM-21 30 μM, norbinaltorphimine 30 μM. The protocol:
Next, a library of GABAAR ligands was investigated to identify compounds that reduce the production of NO as a marker of anti-inflammatory activity. […] NO was quantified with a Greiss assay. Cell viability was determined with CellTiter-Glo.
Cell culture. A) HMC3 Microglia (CRL-3304) were maintained in treated cell culture flasks (Nunc, 156472) with EMEM (Corning, 10010CV) supplemented with 10% heat-inactivated FBS (Corning, 35011CV) and 100 U/mL penicillin and 100 μg/mL streptomycin (Hyclone, SV30010). Cultures were maintained at 37° C. and 5% CO2. When cells reached a density of 7×10^4 cells/mL, cultures were passaged with 0.25% Trypsin (Corning, 25-053-CI) and resuspended to a density no lower than 10,000 cells/mL. B) Human and mouse microglia cell lines were a gift from Dr. David Alvarez-Carbonell at Case Western Reserve University (Cleveland, OH). Microglia were cultured in cell culture treated flasks (Nunc, 156472) with DME/F12 media (Hyclone, SH30023.01) supplemented with 10% heat-inactivated FBS (Corning, 35011CV), 100 U/mL penicillin/100 μg/mL streptomycin (Hyclone, SV30010), and Normocin (Invivogen, ant-nr). Cultures were maintained at 37° C. and 5% CO2. […] Cultures were maintained at 37° C. and 5% CO2. Cells were passaged when they reached a density of approximately 3×10^6 cells/mL using cell scrapers (VWR, 10062-906) to lift cells from flask surface and resuspended at densities of approximately 500,000 cells/mL.
Nitric oxide production (Griess assay) and viability assay (CellTiter-Glo). 80 μL of mouse microglia culture (1×10^6 cells/mL) was plated into sterile 384 well plates representing non-activated wells. The remaining culture was activated with 50 ng/ml LPS (Invivogen, NC9836) and 150 U/mL IFNγ (R&D Systems, 485MI100) and distributed into the 384 well plates. […] Assay plates were incubated for approximately 24 hours (unless otherwise noted) at 37° C., centrifuged, and 40 μL of supernatant transferred to a new plate for analysis using the Griess Assay (Promega, Madison, WI). Absorbance at 530 nm was measured using a TECAN Infinite M1000 plate reader. The remaining 40 μL containing cells was analyzed for toxicity by the CellTiter-Glo Assay (Promega, Madison, WI). Luminescence was read using a TECAN Infinite M1000 plate reader.
A general note: Nitrite, measured by Griess reagent, commonly stands in for NO production.

Setting [6] is: Percent inhibition at 10,000 nM, [3H]-U69593.
Setting [7] is: concentration-dependent, [3H]-U69593, read-out: KOR (Ki).

T1 sequence (P35372 whole entry, species assumed): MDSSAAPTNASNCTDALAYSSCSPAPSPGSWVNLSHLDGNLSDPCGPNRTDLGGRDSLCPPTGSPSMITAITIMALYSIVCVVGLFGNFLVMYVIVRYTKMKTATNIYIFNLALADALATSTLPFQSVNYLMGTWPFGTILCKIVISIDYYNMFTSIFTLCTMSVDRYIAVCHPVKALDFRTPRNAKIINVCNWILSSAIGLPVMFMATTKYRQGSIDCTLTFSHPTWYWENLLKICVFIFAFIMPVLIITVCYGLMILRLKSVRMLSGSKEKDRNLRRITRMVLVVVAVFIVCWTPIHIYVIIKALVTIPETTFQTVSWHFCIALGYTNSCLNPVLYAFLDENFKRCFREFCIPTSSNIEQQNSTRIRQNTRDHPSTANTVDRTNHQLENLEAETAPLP

Take `C#Cc1ccc2c(c1)C(c1ccccc1F)=N[C@@H](C)c1c(C(=O)OCC)ncn1-2` [SH-053-2′F-S-CH3]: the inhibition at 10 µM worked out at 7% in test [1], 36% in test [3] and 93% in test [4] (setting [6]). Besides, the BZR % in test [2] was found to be 92%. Further, the values for the Ki in test [2] and in test [4] (setting [7]) were 111 nM and 90 nM, respectively.
For `Brc1ccc2c(c1)C(c1ccccc1)=NCc1c(-c3cnco3)ncn1-2` [KRM-II-73], the inhibition at 10 µM is 11% in test [1], 32% in test [3] and 83% in test [4] (setting [6]). Moreover, in test [2], the BZR % is 97%. The results for the Ki in test [2] and in test [4] (setting [7]) were 45 nM and 736 nM, respectively.
On to `C#Cc1ccc2c(c1)C(c1ccccn1)=N[C@H](C)c1c(C(=O)O)ncn1-2` [GL-II-30], for which the inhibition at 10 µM in test [1] is 20%; in test [3], 4%; in test [4] (setting [6]), 0%. The BZR % in test [2] was found to be 65%. Besides, the Ki in test [2] is 431 nM.
For the molecule `CCOC(=O)c1ncn2c1[C@@H](C)N=C(c1ccccc1F)c1cc(Br)ccc1-2` [SH-I-047], the results for the inhibition at 10 µM in test [1], in test [3] and in test [4] (setting [6]) were 16%, 0% and 82%, respectively. The BZR % in test [2] was 84%. Also, the Ki was determined as 238 nM in test [2] and 86 nM in test [4].
Regarding `C#Cc1ccc2c(c1)C(c1ccccc1F)=N[C@H](C)c1c(C(N)=O)ncn1-2` [MP-III-019.B], the inhibition at 10 µM in test [1] stood at 2%; in test [3] it was 0%; in test [4] (setting [6]), 62%. Further, the BZR % in test [2] worked out at 94%. Also, the values for the Ki in test [2] and in test [4] (setting [7]) were 54 nM and 1530 nM, respectively.
`C#Cc1ccc2c(c1)C(c1ccccc1F)=N[C@@H](C)c1c(C(=O)OCCC)ncn1-2` [GL-I-32]: the inhibition at 10 µM worked out at 9% in test [1], 14% in test [3] and 95% in test [4] (setting [6]). Further, the BZR % in test [2] worked out at 98%. Further, the Ki in test [2] is 148 nM; in test [4] (setting [7]) it was 64 nM.
As for `C#Cc1ccc2c(c1)C(c1ccccn1)=NCc1c(-c3ocnc3C)ncn1-2` [KRM-III-79], the inhibition at 10 µM in test [1] turned out to be 32%; in test [3] it was 1%; in test [4] (setting [6]), 9%. The BZR % in test [2] is given as 81%. Further, the Ki in test [2] was found to be 308 nM.
With `C#Cc1ccc2c(c1)C(c1ccccc1F)=N[C@H](C)c1c(C(=O)NCC)ncn1-2` [GL-II-74], the figures for the inhibition at 10 µM in test [1], in test [3] and in test [4] (setting [6]) were 10%, 0% and 86%, respectively. In test [2], the BZR % was determined as 84%. Further, the Ki in test [2] worked out at 68 nM; in test [4] (setting [7]), 194 nM.
In the case of `C#Cc1ccc2c(c1)C(c1ccccc1F)=N[C@@H](C)c1c(C(=O)OC)ncn1-2` [MP-III-021], the inhibition at 10 µM in test [1] is 0%; in test [3], 22%; in test [4] (setting [6]) it was 93%. Moreover, the BZR % in test [2] was determined as 88%. The Ki in test [2] was found to be 219 nM; in test [4] (setting [7]) it was 122 nM.
For `C[C@H]1N=C(c2ccccc2F)c2cc(Br)ccc2-n2cnc(C(=O)O)c21` [GL-II-93], the inhibition at 10 µM in test [1], in test [3] and in test [4] (setting [6]) was 0% throughout. In addition, the BZR % in test [2] was determined as 73%. The Ki in test [2] was found to be 86 nM. For the same molecule, in test [4] (radioligand binding), the “KOR affinity (in words)” value was “No KOR affinity was observed”.
Consider `C#Cc1ccc2c(c1)C(c1ccccc1F)=N[C@H](C)c1c(C(=O)N(C)C)ncn1-2` [GL-II-73], for which the inhibition at 10 µM was 6% in test [1], 0% in test [3] and 58% in test [4] (setting [6]). Also, the BZR % in test [2] is 75%. Moreover, the results for the Ki in test [2] and in test [4] (setting [7]) were 506 nM and 1190 nM, respectively.
Consider `C#Cc1ccc2c(c1)C(c1ccccc1F)=N[C@@H](C)c1c(C(N)=O)ncn1-2` [MP-III-018.B], for which the inhibition at 10 µM is 2% in test [1], 10% in test [3] and 51% in test [4] (setting [6]). In addition, in test [2], the BZR % came to 97%. In addition, the results for the Ki in test [2] and in test [4] (setting [7]) were 17 nM and 2780 nM, respectively.
With `C#Cc1ccc2c(c1)C(c1ccccn1)=NCc1c(C(=O)OC)ncn1-2` [MP-III-024], the inhibition at 10 µM in test [1] was determined as 0%; in test [3], 24%; in test [4] (setting [6]), 43%. In addition, the BZR % in test [2] was found to be 81%. Further, the Ki in test [2] turned out to be 277 nM.
As for `Cc1ncoc1-c1ncn2c1CN=C(c1ccccc1F)c1cc(Br)ccc1-2` [KRM-III-59], in test [1], the MOR % was found to be 0%. In test [2], the BZR % is 96%. Moreover, the results for the Ki in test [2] and in test [4] (setting [7]) were 20 nM and 408 nM, respectively. Also, the DOR % in test [3] was determined as 11%. For the same molecule, in test [4] (setting [6]), the KOR % is given as 73%.
Take `CCOC(=O)c1ncn2c1CN(C)C(=O)c1cc(F)ccc1-2` [flumazenil, Flumazenil, reference compound]: the “reversal of the NO reduction by MP-IV-010 (in words)” value in test [5] is “did not reverse”.
As for `C#Cc1ccc2c(c1)C(c1ccccn1)=NCc1c(C(=O)OCC)ncn1-2` [Hz-166], the inhibition at 10 µM was determined as 6% in test [1], 49% in test [3] and 60% in test [4] (setting [6]). In test [4] (setting [7]), the Ki stood at 3820 nM.
Regarding picrotoxin [reference compound], the “reversal of the NO reduction by MP-IV-010 (in words)” value in test [5] was “did not reverse”.
Still for that read-out and setting: the same measure for `CCC(Oc1ccc(Cl)cc1)C(=O)OC1CC2CCC(C1)N2C` (centres unmarked) [SM-21, reference compound]: “no reversal”; for `Oc1ccc2c3c1O[C@H]1c4[nH]c5c(c4C[C@@]4(O)[C@@H](C2)N(CC2CC2)CC[C@]314)C[C@@]1(O)[C@H]2Cc3ccc(O)c4c3[C@@]1(CCN2CC1CC1)[C@H]5O4` [norbinaltorphimine, reference compound]: “reversed the effects of MP-IV-010”.

(Values after patent US20240279232A1, “USE OF SUBSTITUTED 5-(4-METHYL-6-PHENYL-4H-BENZO[F]IMIDAZO[1,5-A][1,4] DIAZEPIN-3-YL)-1,2,4-O[…] THE TREATMENT OF INFLAMMATORY CONDITIONS” (priority 2021, published 2024).)
